Data published in patent US10080777B2, “Syndecan peptides and polypeptides and uses thereof” (WISCONSIN ALUMNI RESEARCH FOUNDATION, priority 2012, dated 2018).
“Also recorded” adds a separate entry of the source. Ends that are not written are not given here.

Columns and labels:
[1] = tested on: human HaCat keratinocytes or MCF10A mammary epithelial cells; test: Competition of GST-fusion proteins or synthetic peptides in EGF-stimulated scratch wound migration (FIG. 8 summary); type: cell-based; conditions: for competitive activity: FIGS. 8A-C
Experimental: FIGS. 8A-C. […] GST-fusion proteins or synthetic peptides were added at concentrations ranging from 0.1 to 30 μM to the culture medium of human HaCat keratinocytes or MCF10A mammary epithelial cells in the presence or absence of 20 ng/ml EGF. The ability of the constructs to inhibit the migration of the cells to close a scratch wound in confluent monolayers was determined and express as the concentration of inhibitor necessary to cause 50% inhibition of cell migration. (FIG. 8A) Competition using recombinant GST-fusion proteins. GST-Sdc4 fusion proteins bearing truncations or mutations were assessed for their competitive activity. […] (FIG. 8B) Schematic representation of the active site in Sdc4. The active site is shown as a juxtamembrane site in the ectodomain of Sdc4. TM is the transmembrane domain and CYTO is the cytoplasmic domain. The sequence of a peptide derived from this site ([…]) (SEQ ID NO: 4) is shown along with its homology across other mammalian Sdc4 species (SEQ ID NO: 12) and its homology to Sdc4 derived from zebrafish (SEQ ID NO: 13), identifying highly conserved amino acids at the extreme N- and C-terminus of the peptide. (FIG. 8C) Competition with synthetic peptides. Peptides were purchased from commercial sources for testing as a putative synstatin inhibitory peptide ([…]). Mutation of isoleucine at position 89 to alanine (I89A), or mutation of amino acids 99-108 to alanine (99-108A) reduce the activity by 10-fold. Truncation of amino acids 126-131 at the C-terminus (4126-131) reduces the activity by at least 100-fold.
Wound healing assay. HaCat or MCF10A cells grown to confluence on 48 well-plates were starved for 6 hr by serum deprivation followed by introduction of a scratch wound in the monolayer using 200 μl pipette tip. […] Images were acquired using a PlanApo 20 (0.75 numerical aperture) objective and a Photometrics CoolSnap ES camera on a Nikon Eclipse TE2000U microscopy system and wound closure quantified.

[2] = tested on: HaCat keratinocytes; test: EGF-stimulated scratch wound closure (chemotactic migration) of HaCat keratinocytes; type: cell-based, human; conditions: EGF 10 ng/ml
[3] = tested on: MCF10A cells; test: Total cell number, CellTiterGLO assay, MCF10A; type: cell-based, human; conditions: 3-30 μM; 4 or 7 days; normal epithelium
Experimental: (§1) FIGS. 9A-F. SSTN treatment of normal (nontransformed) epithelial cells versus carcinoma (transformed) cells. Cells are plated for one day, then treated with either 3-30 μM […] (SSTN-I), 3-30 μM […] (SSTN-E), 3-30 μM SSTNHER2 (SSTN-H) or combinations of the three peptides, each at 10 μM to test their additive effect. […] The treatment times are chosen to reflect only modest effects of the peptides used singly, so that the more pronounced effect of peptides used in combination can still be observed. Treatment for longer times leads to significant cell death observed even with single peptides alone. (FIG. 9A) HaCat human keratinocytes, an example of a normal stratified epithelium, (FIG. 9B) UM-SCC47 cells, a squamous cell carcinoma derived from the tongue of a patient (a stratrified epithelium), (FIG. 9C) SCC25 cells, another squamous cell carcinoma from the tongue of a patient), (FIG. 9D) MCF10A cells, a normal human breast epithelium, (FIG. 9E) MDA-MB-468 cells, a triple-negative (TN) breast carcinoma, and (FIG. 9F) SKBr3 cells, a HER2+ human breast carcinoma. Note that all four carcinomas are inhibited by […], and this is enhanced when […] is combined with the other SSTN peptides, leading to obvious cell death (e.g., the number of cells at the end of the experiment are less than at the beginning).
(§2) Apoptosis assay. […]

[4] = tested on: HaCat human keratinocytes; test: Total cell number, CellTiterGLO assay, HaCat; type: cell-based; conditions: 3-30 μM; 4 or 7 days; normal epithelium
Experimental: as §1, §2

[5] = tested on: UM-SCC47 cells; test: Total cell number, CellTiterGLO assay, UM-SCC47; type: cell-based, human; conditions: 3-30 μM; combinations each at 10 μM; 4 or 7 days
Experimental: as §1, §2

[6] = tested on: MCF10A mammary epithelial cells
Experimental: Migration of human MCF10A mammary epithelial cells in response to EGF (10 ng/ml) is tested in 12 hr scratch wound closure assays.
Wound healing assay. HaCat or MCF10A cells grown to confluence on 48 well-plates were starved for 6 hr by serum deprivation followed by introduction of a scratch wound in the monolayer using 200 μl pipette tip. […] To cause EGF-stimulated chemotactic migration that depends on Sdc4, cells were stimulated with EGF (10 ng/ml). Images were acquired using a PlanApo 20 (0.75 numerical aperture) objective and a Photometrics CoolSnap ES camera on a Nikon Eclipse TE2000U microscopy system and wound closure quantified.

[7] = tested on: SCC25 cells; test: Total cell number, CellTiterGLO assay, SCC25; type: cell-based, human; conditions: 3-30 μM; combinations each at 10 μM; 4 or 7 days
Experimental: as §1, §2

[8] = tested on: SKBr3 cells; test: Total cell number, CellTiterGLO assay, SKBr3; type: cell-based, human; conditions: 3-30 μM; combinations each at 10 μM; 4 or 7 days
Experimental: as §1, §2

[9] = tested on: MDA-MB-468 cells; test: Total cell number, CellTiterGLO assay, MDA-MB-468; type: cell-based, human; conditions: 3-30 μM; combinations each at 10 μM; 4 or 7 days
Experimental: as §1, §2

[10] = tested on: fibroblasts; conditions: McFall et al.; cited from earlier work
[11] = molecular target: T1, EGFR (Homo sapiens, UniProt P00533); test: Capture of EGFR from cell lysates by GST-ectodomain on glutathione beads; type: binding; conditions: lysates of EGF-stimulated A431 cells / HaCat cell lysates, western blot
T1 construct: endogenous in cells
Experimental: (§3) (FIG. 6A) Mouse syndecan chimeras in which their ectodomains are switched are expressed in HaCat cells, then immunoprecipitated with antibodies specific for the mouse syndecan ectodomains. […] Also note that these complexes assemble only upon EGF treatment.
(§4) Immunoprecipitation. Immunoprecipitations were carried out as described previously (Beauvais et al., 2004; Beauvais et al., 2006). Cells were washed once with washing buffer (50 mM Hepes, 50 mM NaCl and 10 mM EDTA, pH 7.4) and lysed for 20 min on ice in 1% Triton X-100 containing a 1:1000 dilution of protease inhibitor mixture set III (Calbiochem) in washing buffer. Cell debris was removed by centrifugation at 20,000 g for 15 min at 4° C. Lysates or 6×His-tagged β4 cytoplasmic domain (amino acids 1677-1752) were incubated at 4° C. overnight with 100 μl Glutathione Sepharose 4B beads (50% in IP wash buffer), GST-S4CD or GST-S1CD in present or absent of different peptides. Samples were resolved by electrophoresis under reduced conditions on a 15% Laemmli gel, transferred to Immobilon P, and probed with primary antibody followed by an alkaline phosphatase-conjugated secondary antibody. Visualization of immune-reactive bands was performed using ECF reagent (GE Healthcare) and scanned on a Typhoon Trio Variable Mode Imager (GE-Healthcare) in blue fluorescence. […]

[12] = Estimated blood concentration during Alzet pump delivery; type: in vivo, nude (nu/nu) mice; conditions: 400 μM in the pump
Experimental: (§5) FIG. 10. S4ED blocks MDA-MB-468 breast carcinoma growth in vivo. Human MDA-MB-468 breast carcinoma cells were implanted subcutaneously on the flank of nude (nu/nu) mice and allowed to grow for 2 weeks to form palpable tumors (dotted blue line indicates size after 2 weeks). At that time, systemic delivery (0.25 μL/hr) of 400 μM recombinant GST-S4ED, GST alone or saline alone (no treatment) was initiated by surgical implantation of Alzet pumps on the behind the shoulder blades of the animals for 4 wks, followed by replacement with pumps containing fresh protein for an additional 4 wks. Tumor size was measured with calipers at 2 week intervals. Error bars denote S.D., 10 tumors/treatment group.
(§6) The inventor has tested the entire recombinant S4ED protein (as a GST-S4ED fusion protein) as an inhibitor against one of these carcinoma cells (the MDA-MB-468 cells) during tumor growth in immunocompromised nude (nu/nu) mice.

[13] = tested on: MDA-MB-468 breast carcinoma; test: MDA-MB-468 breast carcinoma subcutaneous tumor growth in nude mice, Alzet pump delivery; type: in vivo, nude (nu/nu) mice; conditions: 400 μM in pump, 0.25 μL/hr systemic, 8 wks, started 2 weeks after implantation
Experimental: as §5, §6

[14] = molecular target: T2, α6β4 integrin (Homo sapiens, UniProt P16144+P23229); test: Capture of α6β4 integrin from cell lysates by GST-ectodomain on glutathione beads; type: binding; conditions: re-probed blot, data not shown
T2 construct: endogenous in cells
T2 sequence (P23229 24-1130): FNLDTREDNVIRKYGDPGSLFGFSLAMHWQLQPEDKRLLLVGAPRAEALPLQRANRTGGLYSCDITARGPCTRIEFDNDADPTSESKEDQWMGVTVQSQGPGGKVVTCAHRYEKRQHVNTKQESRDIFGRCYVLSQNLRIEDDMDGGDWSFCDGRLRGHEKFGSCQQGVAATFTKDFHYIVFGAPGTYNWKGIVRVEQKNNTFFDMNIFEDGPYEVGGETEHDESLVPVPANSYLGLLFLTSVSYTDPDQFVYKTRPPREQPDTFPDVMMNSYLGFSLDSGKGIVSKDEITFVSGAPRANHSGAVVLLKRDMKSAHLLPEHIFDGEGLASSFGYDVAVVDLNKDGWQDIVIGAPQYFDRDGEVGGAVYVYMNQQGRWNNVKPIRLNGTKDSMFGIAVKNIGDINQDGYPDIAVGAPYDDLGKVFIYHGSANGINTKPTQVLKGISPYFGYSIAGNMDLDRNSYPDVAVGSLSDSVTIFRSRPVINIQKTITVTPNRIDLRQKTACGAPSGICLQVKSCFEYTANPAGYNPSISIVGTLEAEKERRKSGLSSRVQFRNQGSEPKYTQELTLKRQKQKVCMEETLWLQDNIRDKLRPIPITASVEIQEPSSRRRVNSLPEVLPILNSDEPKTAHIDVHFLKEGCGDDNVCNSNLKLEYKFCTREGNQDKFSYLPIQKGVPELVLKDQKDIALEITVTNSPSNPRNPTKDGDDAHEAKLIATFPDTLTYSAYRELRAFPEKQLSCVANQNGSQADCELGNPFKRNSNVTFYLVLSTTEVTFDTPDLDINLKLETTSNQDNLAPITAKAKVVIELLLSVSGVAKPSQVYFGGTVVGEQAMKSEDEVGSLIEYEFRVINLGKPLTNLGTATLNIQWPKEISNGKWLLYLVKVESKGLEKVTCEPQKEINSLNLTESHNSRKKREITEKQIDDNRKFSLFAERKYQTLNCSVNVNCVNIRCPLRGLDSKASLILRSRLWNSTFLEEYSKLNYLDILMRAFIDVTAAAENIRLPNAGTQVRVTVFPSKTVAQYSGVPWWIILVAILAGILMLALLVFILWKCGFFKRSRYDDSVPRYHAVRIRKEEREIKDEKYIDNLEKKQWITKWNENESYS
T2 sequence (P23229 942-1130 limits assumed): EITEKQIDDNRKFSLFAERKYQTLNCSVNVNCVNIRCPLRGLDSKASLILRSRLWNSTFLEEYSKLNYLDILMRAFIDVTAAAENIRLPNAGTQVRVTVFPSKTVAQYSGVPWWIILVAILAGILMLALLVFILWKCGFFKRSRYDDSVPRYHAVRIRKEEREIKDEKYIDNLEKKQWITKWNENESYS
T2 sequence (P16144 28-1752 isoform P16144-2 limits assumed): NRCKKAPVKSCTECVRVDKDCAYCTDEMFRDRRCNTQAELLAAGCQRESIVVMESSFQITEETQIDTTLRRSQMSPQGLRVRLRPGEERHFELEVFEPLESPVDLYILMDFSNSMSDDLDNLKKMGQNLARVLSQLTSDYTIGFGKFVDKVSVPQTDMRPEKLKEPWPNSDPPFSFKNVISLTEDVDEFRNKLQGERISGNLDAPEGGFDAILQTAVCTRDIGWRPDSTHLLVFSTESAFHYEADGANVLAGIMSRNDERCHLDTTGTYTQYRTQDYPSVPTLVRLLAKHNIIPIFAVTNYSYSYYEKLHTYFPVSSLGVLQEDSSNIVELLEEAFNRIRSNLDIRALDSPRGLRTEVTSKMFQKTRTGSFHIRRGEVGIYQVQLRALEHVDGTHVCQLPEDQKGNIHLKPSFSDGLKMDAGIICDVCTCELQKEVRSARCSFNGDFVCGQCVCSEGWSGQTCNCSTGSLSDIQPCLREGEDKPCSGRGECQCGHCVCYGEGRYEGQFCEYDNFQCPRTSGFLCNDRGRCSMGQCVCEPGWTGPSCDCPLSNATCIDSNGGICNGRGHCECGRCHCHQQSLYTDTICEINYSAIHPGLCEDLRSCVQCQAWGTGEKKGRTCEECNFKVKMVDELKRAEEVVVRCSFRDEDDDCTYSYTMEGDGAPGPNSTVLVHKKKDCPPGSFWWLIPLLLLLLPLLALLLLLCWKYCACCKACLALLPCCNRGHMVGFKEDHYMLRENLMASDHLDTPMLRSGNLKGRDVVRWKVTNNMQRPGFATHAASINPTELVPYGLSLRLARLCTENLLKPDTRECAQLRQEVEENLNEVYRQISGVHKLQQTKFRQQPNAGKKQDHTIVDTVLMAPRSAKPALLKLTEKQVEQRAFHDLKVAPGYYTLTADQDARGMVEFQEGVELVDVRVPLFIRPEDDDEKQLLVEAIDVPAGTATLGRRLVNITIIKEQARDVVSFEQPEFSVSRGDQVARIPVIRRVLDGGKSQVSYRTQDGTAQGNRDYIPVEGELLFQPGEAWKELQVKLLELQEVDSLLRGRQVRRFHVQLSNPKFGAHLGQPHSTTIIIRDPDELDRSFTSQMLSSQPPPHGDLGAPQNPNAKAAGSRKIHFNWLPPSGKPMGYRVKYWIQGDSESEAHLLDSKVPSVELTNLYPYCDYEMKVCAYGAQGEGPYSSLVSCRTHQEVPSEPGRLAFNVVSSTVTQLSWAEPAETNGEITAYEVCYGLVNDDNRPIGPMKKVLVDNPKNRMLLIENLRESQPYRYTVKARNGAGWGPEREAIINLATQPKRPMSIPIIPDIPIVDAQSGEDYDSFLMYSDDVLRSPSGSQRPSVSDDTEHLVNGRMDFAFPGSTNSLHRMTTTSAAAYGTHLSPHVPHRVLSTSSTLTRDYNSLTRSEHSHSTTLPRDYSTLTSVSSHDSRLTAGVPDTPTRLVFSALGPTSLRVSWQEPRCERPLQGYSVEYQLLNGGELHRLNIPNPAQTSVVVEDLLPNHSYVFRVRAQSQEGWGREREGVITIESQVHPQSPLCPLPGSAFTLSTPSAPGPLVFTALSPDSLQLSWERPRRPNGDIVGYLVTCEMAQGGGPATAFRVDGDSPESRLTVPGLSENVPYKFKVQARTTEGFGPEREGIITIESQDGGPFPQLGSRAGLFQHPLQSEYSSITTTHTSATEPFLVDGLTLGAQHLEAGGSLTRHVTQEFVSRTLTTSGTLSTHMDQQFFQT
Experimental: Immunoprecipitation. Immunoprecipitations were carried out as described previously (Beauvais et al., 2004; Beauvais et al., 2006). Cells were washed once with washing buffer (50 mM Hepes, 50 mM NaCl and 10 mM EDTA, pH 7.4) and lysed for 20 min on ice in 1% Triton X-100 containing a 1:1000 dilution of protease inhibitor mixture set III (Calbiochem) in washing buffer. Cell debris was removed by centrifugation at 20,000 g for 15 min at 4° C. Lysates or 6×His-tagged β4 cytoplasmic domain (amino acids 1677-1752) were incubated at 4° C. overnight with 100 μl Glutathione Sepharose 4B beads (50% in IP wash buffer), GST-S4CD or GST-S1CD in present or absent of different peptides. Samples were resolved by electrophoresis under reduced conditions on a 15% Laemmli gel, transferred to Immobilon P, and probed with primary antibody followed by an alkaline phosphatase-conjugated secondary antibody. Visualization of immune-reactive bands was performed using ECF reagent (GE Healthcare) and scanned on a Typhoon Trio Variable Mode Imager (GE-Healthcare) in blue fluorescence.
The inventor's prior work has shown that Sdc1 contains a site in its extracellular domain to capture the αvβ3 or αvβ5 integrin and the insulin-like growth factor-1 receptor (IGF1-R) (Beauvais et al., 2009; Beauvais & Rapraeger, 2010). […]

[15] = molecular target: T3, HER2 (Homo sapiens, UniProt P04626); test: Capture of HER2 from cell lysates by GST-ectodomain on glutathione beads; type: binding; conditions: lysates of EGF-stimulated A431 cells; western blot
T3 construct: endogenous in cells
Experimental: as §3, §4

In the case of “4126-131: synthetic peptide with truncation of amino acids 126-131 at the C-terminus (NHIPERAGSGSQVPTEPKKLEENEVIPKRISPVEESEDV)”, the “reduction of competitive activity, synthetic peptide variants versus peptide 87-131” value ([1]; 0.1 to 30 μM, 20 ng/ml EGF, FIG. 8C) is reported as “at least 100 fold”.

In the case of “NHIPERAGSGSQVPTEPKKLEENEVIPKRISPVEESEDVSNKVSM”, the “effect on EGF-induced migration / wound closure (in words)” value [2] is reported as “blocks”, the “growth or survival (total cell number)” value [3] is reported as “no effect” and the “growth or survival (total cell number)” value [4] is reported as “no effect”. The “growth/survival (total cell number)” value [5] was “do target growth/survival mechanisms; also recorded: inhibited”, the IC50 ([6]; 12 h) was 100 to 300 nM and the “effect on EGF-stimulated migration/chemotaxis (in words)” value ([6]; EGF 10 ng/ml, scratch wound closure) was “blocks”. The “growth/survival (total cell number)” value [7] was “do target growth/survival mechanisms; also recorded: inhibited”, the “growth/survival (total cell number)” value [8] was “do target growth/survival mechanisms; also recorded: inhibited” and the “growth/survival (total cell number)” value [9] was “do target growth/survival mechanisms; also recorded: inhibited”.

For “S4ED 78-118: truncated Sdc4 ectodomain, amino acids 78-118 (VVHPLVPLDNHIPERAGSGSQVPTEPKKLEENEVIPKRISP)”, the competitive activity [1] is given as “ca. 10%” and the “activity as competitor for cell adhesion to full-length S4ED (in words)” value [10] is given as “completely inactive”.

For “S4ED98-131: truncated Sdc4 ectodomain, amino acids 98-131 (QVPTEPKKLEENEVIPKRISPVEESEDVSNKVSM)”, the competitive activity [1] is given as “ca. 10%” and the “loss of activity versus S4ED78-131 as competitor for cell adhesion” value [10] is given as 100 fold.

For COc1cc(/C=C(\C#N)C(N)=O)cc(CSc2nc3ccccc3s2)c1O [AG825], the “effect on EGF-induced migration / wound closure (in words)” value ([2]; 10 μM AG825) was “not inhibited; also recorded: not by the tyrphostin AG825”.

With COc1cc2ncnc(Nc3ccc(F)c(Cl)c3)c2cc1OCCCN1CCOCC1 [Iressa] the “effect on EGF-induced migration / wound closure (in words)” value ([2]; 1 μM Iressa) was “does block wound closure; also recorded: blocked”.

B1: GST-S4ED: recombinant Sdc4 ectodomain GST fusion protein (protein)
chain: ESIRETEVIDPQDLLEGRYFSGALPDDEDVVGPGQESDDFELSGSGDLDDLEDSMIGPEVVHPLVPLDNHIPERAGSGSQVPTEPKKLEENEVIPKRISPVEESEDVSNKVSMSSTVQGSNIFERTE
modifications: left off: a dimerising Fc or GST
notes: recombinant Sdc4 ectodomain GST fusion protein
For B1, the “capture of EGFR” value [11] was “captures”, the “capture of EGFR” value ([11]; listed as S4ED) was “captures only EGFR” and the “estimated concentration in the blood” value [12] was 2 to 3 µM. For the same molecule, the tumor growth [13] was “tumor growth leveling off”, the tumor growth ([13]; listed as S4ED) was “blocks” and the “capture of α6β4 integrin” value [14] was “also captured”. The “block of EGF-stimulated migration” value ([6]; 10 μM, EGF 10 ng/ml, 12 hr scratch wound closure) was 80% and the “capture of HER2” value [15] was “captures only EGFR”.
